Results as given in PMC4368516 (PLoS Neglected Tropical Diseases, 2015).
Structures can show the parent of a compound that is named as a salt. Where two headings read alike, the source gives them in different places.

What was measured:
[1] = test system: C. quinquefasciatus larvae; assay: whole plant or invertebrate; details: Culex quinquefasciatus, 72 h, read-out: LC50, Cq
[2] = test system: C. quinquefasciatus larvae; details: for LT50, Cq: at 400 μM; for earliest time debilitated larvae observed after exposure, C. quinquefasciatus: 400 μM; for larval mortality, C. quinquefasciatus, within the first 24 h: 24 h post exposure (S3 Fig)
[3] = molecular target: T1, CqDOP2 (Culex quinquefasciatus, UniProt A0A0B5H0X6); assay: cell-based
[4] = molecular target: T2, Human D1 (Homo sapiens, UniProt P21728); assay: Inhibition of dopamine-stimulated cAMP response (HTRF) in HEK293 cells expressing human D1; assay type: cell-based
T2 construct: expressed in transfected cells

[5] = test system: Ae. aegypti larvae; details: for LT50, Aa: at 400 μM
[6] = molecular target: T3, AaDOP2 (Aedes aegypti, UniProt H6D5H2); assay: cell-based
T3 sequence (H6D5H2 1-476): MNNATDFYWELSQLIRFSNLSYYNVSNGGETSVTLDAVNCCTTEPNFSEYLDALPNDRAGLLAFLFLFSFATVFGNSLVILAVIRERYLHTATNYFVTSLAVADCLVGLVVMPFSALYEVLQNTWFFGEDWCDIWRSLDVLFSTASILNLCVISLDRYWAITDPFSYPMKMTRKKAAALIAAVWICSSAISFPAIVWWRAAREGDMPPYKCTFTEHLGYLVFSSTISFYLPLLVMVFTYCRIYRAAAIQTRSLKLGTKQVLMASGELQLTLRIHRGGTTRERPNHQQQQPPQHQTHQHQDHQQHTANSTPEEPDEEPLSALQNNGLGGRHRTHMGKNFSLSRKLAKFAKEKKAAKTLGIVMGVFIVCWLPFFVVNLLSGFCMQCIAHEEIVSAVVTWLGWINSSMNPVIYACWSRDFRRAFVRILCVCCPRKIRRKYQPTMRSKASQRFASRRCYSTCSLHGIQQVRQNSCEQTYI

[7] = test system: Ae. aegypti larvae; assay: whole plant or invertebrate; details: Aedes aegypti, 72 h, read-out: LC50, Aa
[8] = molecular target: T1, CqDOP2; assay: HTRF cAMP accumulation assay, agonist response of CqDOP2 stably expressed in HEK293 cells; assay type: cell-based; details: for EC50 fold higher than that of dopamine, CqDOP2: cAMP response
[9] = molecular target: T3, AaDOP2; assay: cell-based; remark: listed apart in the source
[10] = molecular target: T3, AaDOP2; details: cAMP response
[11] = test system: AmDOP2; details: ref [19]; cited from earlier work
[12] = molecular target: T1, CqDOP2; details: read-out: IC50 for inhibition of dopamine-stimulated cAMP response, CqDOP2; HEK293 cells; dopamine 3 μM; ±SEM
[13] = read-out: IC50 for inhibition of dopamine-stimulated cAMP response, Human D1

T1 sequence (A0A0B5H0X6 entry or part of it): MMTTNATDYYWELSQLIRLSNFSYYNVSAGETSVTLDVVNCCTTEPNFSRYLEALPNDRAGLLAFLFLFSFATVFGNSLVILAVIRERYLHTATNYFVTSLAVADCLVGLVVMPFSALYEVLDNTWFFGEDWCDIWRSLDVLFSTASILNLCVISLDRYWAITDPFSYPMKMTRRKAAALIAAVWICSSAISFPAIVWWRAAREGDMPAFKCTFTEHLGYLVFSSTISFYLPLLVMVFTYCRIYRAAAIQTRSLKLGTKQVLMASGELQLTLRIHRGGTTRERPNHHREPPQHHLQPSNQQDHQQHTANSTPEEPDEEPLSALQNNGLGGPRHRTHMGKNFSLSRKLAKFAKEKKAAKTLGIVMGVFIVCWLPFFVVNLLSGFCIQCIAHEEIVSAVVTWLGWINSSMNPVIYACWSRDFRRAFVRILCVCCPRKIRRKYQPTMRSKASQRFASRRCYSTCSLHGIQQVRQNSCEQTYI
T2 sequence (P21728 whole entry): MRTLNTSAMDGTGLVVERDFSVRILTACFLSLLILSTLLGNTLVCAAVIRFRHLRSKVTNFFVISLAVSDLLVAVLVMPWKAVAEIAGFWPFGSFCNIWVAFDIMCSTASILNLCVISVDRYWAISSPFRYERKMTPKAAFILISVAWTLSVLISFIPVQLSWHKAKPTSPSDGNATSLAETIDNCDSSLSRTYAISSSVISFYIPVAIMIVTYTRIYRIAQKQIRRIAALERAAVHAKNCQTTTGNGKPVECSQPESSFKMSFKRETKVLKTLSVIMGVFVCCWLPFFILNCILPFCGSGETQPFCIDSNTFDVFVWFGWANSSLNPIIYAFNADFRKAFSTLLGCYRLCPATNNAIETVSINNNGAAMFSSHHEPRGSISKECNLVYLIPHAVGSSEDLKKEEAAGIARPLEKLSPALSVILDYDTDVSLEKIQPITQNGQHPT

With CN(C)CCC=C1c2ccccc2CCc2ccccc21 [Amitriptyline, amitriptyline hydrochloride] the LC50 [1] was 165 ± 37 µM, the “LT50, Cq” value ([2]; L3 larvae, ±SEM, n ≥ 3) was 41.7 ± 2.1 h and the IC50 [3] was 0.0033 ± 0.0004 µM. For the same compound, the IC50 [4] was 0.69 ± 0.052 µM, the “LT50, Aa” value ([5]; L3 larvae, ±SEM, n ≥ 3) was 47.8 ± 6.3 h and the IC50 [6] was 0.0064 ± 0.002 µM. The LC50 [7] was 208 ± 137 µM.

With CCNC(=O)N1CCN(CCCC(c2ccc(F)cc2)c2ccc(F)cc2)CC1 [Amperozide, amperozide hydrochloride] the LC50 [1] was 135 ± 35 µM, the “LT50, Cq” value ([2]; L3 larvae, ±SEM, n ≥ 3) was 25.4 ± 1.5 h and the IC50 [3] was 0.248 ± 0.042 µM. For the same compound, the IC50 [4, 13] was 16.2 ± 4.77 µM, the “LT50, Aa” value ([5]; L3 larvae, ±SEM, n ≥ 3) was 46.6 ± 6.2 h and the IC50 [6] was 0.469 ± 0.071 µM. For the same compound, the LC50 [7] was 161 ± 20 µM.

For CN1CC2c3ccccc3Oc3ccc(Cl)cc3C2C1 (stereo not shown) [Asenapine, asenapine maleate], the LC50 [1] was 50 ± 10 µM, the “LT50, Cq” value ([2]; L3 larvae, ±SEM, n ≥ 3) was 24.2 ± 1.3 h and the IC50 [3] was 0.0008 ± 3e-05 µM. The IC50 [4, 13] was 0.101 ± 0.002 µM, the “LT50, Aa” value ([5]; L3 larvae, ±SEM, n ≥ 3) was 36.4 ± 1.6 h and the “larval mortality, Ae. aegypti, after 48 h” value ([5]; in vivo) was greater than 70%. It also gave an IC50 [6] of 0.0007 ± 0.0002 µM and an LC50 [7] of 102 ± 22 µM.

For CN(C)CCCN1c2ccccc2Sc2ccc(Cl)cc21 [Chlorpromazine, chlorpromazine hydrochloride], the LC50 [1] was 64 ± 9 µM, the “earliest time debilitated larvae observed after exposure, C. quinquefasciatus” value [2] was 1 h and the “larval mortality, C. quinquefasciatus, within the first 24 h” value (from here on “larval mortality, C. quinquefasciatus”) [2] was greater than 70%. For the same compound, the “LT50, Cq” value ([2]; L3 larvae, ±SEM, n ≥ 3) was 16.7 ± 1.1 h, the IC50 [3] was 0.0074 ± 0.002 µM and the “larval mortality, Ae. aegypti, after 48 h” value ([5]; 48 h post exposure (S4 Fig)) was greater than 70%. The “LT50, Aa” value ([5]; L3 larvae, ±SEM, n ≥ 3) was 26.1 ± 0.9 h, the IC50 [6] was 0.019 ± 0.001 µM and the LC50 [7] was 88 ± 9 µM.

With CN(C)CC/C=C1/c2ccccc2Sc2ccc(Cl)cc21 [Chlorprothixene] the LC50 [1] was 41 ± 7 µM, the “earliest time debilitated larvae observed after exposure, C. quinquefasciatus” value [2] was 1 h and the “larval mortality, C. quinquefasciatus” value [2] was greater than 70%. For the same compound, the “LT50, Cq” value ([2]; L3 larvae, ±SEM, n ≥ 3) was 13.9 ± 2.0 h, the “larval mortality, Ae. aegypti, after 48 h” value ([5]; 48 h post exposure (S4 Fig)) was greater than 70% and the “LT50, Aa” value ([5]; L3 larvae, ±SEM, n ≥ 3) was 22.2 ± 3.2 h. For the same compound, the “earliest time debilitated larvae observed after exposure, Ae. aegypti” value ([5]; in vivo) was 2 h and the LC50 [7] was 62 ± 9 µM.

With OCCN1CCN(CC/C=C2/c3ccccc3Sc3ccc(C(F)(F)F)cc32)CC1 [Cis-(Z)-flupenthixol, cis-(Z)-flupenthixol dihydrochloride] the LC50 [1] was 59 ± 22 µM, the “LT50, Cq” value ([2]; L3 larvae, ±SEM, n ≥ 3) was 35.2 ± 6.1 h and the IC50 [3] was 0.002 ± 0.0005 µM. The “LT50, Aa” value ([5]; L3 larvae, ±SEM, n ≥ 3) was 42.6 ± 2.9 h, the IC50 [6] was 0.002 ± 0.0008 µM and the LC50 [7] was 83 ± 25 µM.

With CN(C)CCCN1c2ccccc2CCc2ccc(Cl)cc21 [Clomipramine] the LC50 [1] was 89 ± 19 µM, the “LT50, Cq” value ([2]; L3 larvae, ±SEM, n ≥ 3) was 27.3 ± 3.0 h and the “LT50, Aa” value ([5]; L3 larvae, ±SEM, n ≥ 3) was 28.7 ± 3.1 h. It also gave an LC50 [7] of 88 ± 24 µM.

With CNC[C@H](O)c1ccc(O)c(O)c1 [Epinephrine, (-)-epinephrine bitartrate] the EC50 [8] was 80.8 ± 21 µM, the “EC50 fold higher than that of dopamine, CqDOP2” value [8] was “at least 10 fold” and the EC50 [9] was 41.1 ± 10.5 µM. For the same compound, the “EC50 fold higher than that of dopamine, AaDOP2” value [10] was “at least 10 fold”.

With CSc1ccc2c(c1)C(N1CCN(C)CC1)Cc1ccccc1S2 (stereo not shown) [Methiothepin] the “earliest time debilitated larvae observed after exposure, C. quinquefasciatus” value [2] was 1 h, the “larval mortality, C. quinquefasciatus” value [2] was greater than 70% and the “LT50, Cq” value ([2]; L3 larvae, ±SEM, n ≥ 3) was 15.7 ± 4.9 h. For the same compound, the LC50 ([2]; read-out: LC50, Cq, L3 larvae, 72 h exposure, ±SEM, n ≥ 3) was 44 ± 3 µM, the “larval mortality, Ae. aegypti, after 48 h” value ([5]; 48 h post exposure (S4 Fig)) was greater than 70% and the “LT50, Aa” value ([5]; L3 larvae, ±SEM, n ≥ 3) was 30.6 ± 1.4 h. For the same compound, the LC50 ([5]; read-out: LC50, Aa, L3 larvae, 72 h exposure, ±SEM, n ≥ 3) was 69 ± 12 µM.

In the case of CN1CCN2c3ccccc3Cc3ccccc3C2C1 (stereo not shown) [Mianserin], the “LT50, Cq” value ([2]; L3 larvae, ±SEM, n ≥ 3) is reported as 17.9 ± 3.0 h and the “LT50, Aa” value ([5]; L3 larvae, ±SEM, n ≥ 3) is reported as 22.8 ± 1.3 h.

For NC[C@H](O)c1ccc(O)c(O)c1 [Norepinephrine, L (-)-norepinephrine bitartrate], the EC50 [8] is listed as 52.2 ± 13.8 µM, the “EC50 fold higher than that of dopamine, CqDOP2” value [8] is listed as “at least 10 fold” and the “fold more agonist required than dopamine, AmDOP2” value [11] is listed as “approximately 25 fold”. The EC50 [9] was 30.3 ± 7.5 µM and the “EC50 fold higher than that of dopamine, AaDOP2” value [10] was “at least 10 fold”.

CN1CCc2cc(Cl)c(O)cc2[C@@H](c2ccccc2)C1 [SCH23390, SCH23390 hydrochloride] showed an IC50 [3] of 0.745 ± 0.062 µM and an IC50 [6] of 0.709 ± 0.187 µM.

“(±) butaclamol hydrochloride [(±)-Butaclamol]” showed an IC50 [12] of 0.172 ± 0.015 µM.
